Assay results as given in the NIST ThermoML archive (doi:10.1021/je050403k).
Several values for one entry are separate records, joined by “and”; a condition that tells them apart may be missing. Equal values may be shown once. ± gives the expanded uncertainty stated by the source.

Details: Liquid

## C=CCC [1-butene]
364.51 K
  vapor or sublimation pressure: 1510.5 ± 10 kPa

## CC(C)C [2-methylpropane]
364.5 K
  vapor or sublimation pressure: 1685.6 ± 12 kPa

## C=C(C)C [2-methylpropene]
364.51 K
  vapor or sublimation pressure: 1546.2 ± 11 kPa

## C/C=C/C [(E)-2-butene]
364.5 K
  vapor or sublimation pressure: 1269.2 ± 8.9 kPa

## C/C=C\C [(Z)-2-butene]
365.43 K
  vapor or sublimation pressure: 1213 ± 8.5 kPa

## CC(C)=O [acetone]
364.51 K
  vapor or sublimation pressure: 297.1 ± 2.1 kPa and 294.3 ± 2.1 kPa and 296.4 ± 2.1 kPa
364.52 K
  vapor or sublimation pressure: 296.8 ± 2.1 kPa
365.43 K
  vapor or sublimation pressure: 302.56 ± 2.1 kPa

## CCCC [butane]
364.51 K
  vapor or sublimation pressure: 1284.5 ± 8.9 kPa
